The target of one experiment is T1, K-Ras G12S (Homo sapiens, UniProt P01116, G12S).
T1 construct: made in house; host or cells: E. coli, e.g. BL21 (DE3)
Put plainly: PPI-HTRF assay, K-Ras G12S / SOS1 interaction. It is filed as biochemical. The settings on record: read-out: PPI-HTRF-5 nM (K-Ras G12S IC50). The method in brief:
(§1)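 Equilibrium interaction of GST-tagged human K-Ras (wildtype or G12D/G12V/G12S mutant) with His-tagged hSOS1. Detection uses anti-GST-Eu(K) and anti-6His-XL665 in HEPES pH 7.4 buffer. Signal is read ≥10 min after mixing and the ratiometric HTRF signal is fitted for IC50.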
For orientation: In TR-FRET formats the signal depends on donor and acceptor labels being close together.

Another experiment deals with A549 cells. The experiment is described as follows: Ras cellular assay, cell proliferation A549. In kind it is cell-based. The note with it: Homo sapiens. The method in brief: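 G12S-mutant A549 cells (800/well) in RPMI-1640 plus 10% heat-inactivated FBS, standard or ultra-low attachment 384-well plates, dosed the day after plating with a 10-point 3-fold series. Viability by CellTiter-Glo luminescence about 6 days later; IC50 from four-parameter fit.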

The target in another experiment is T2, wildtype K-Ras (Homo sapiens, UniProt P01116).
T2 construct: made in house; host or cells: E. coli, e.g. BL21 (DE3)
T2 sequence (P01116 1-188 isoform P01116-2): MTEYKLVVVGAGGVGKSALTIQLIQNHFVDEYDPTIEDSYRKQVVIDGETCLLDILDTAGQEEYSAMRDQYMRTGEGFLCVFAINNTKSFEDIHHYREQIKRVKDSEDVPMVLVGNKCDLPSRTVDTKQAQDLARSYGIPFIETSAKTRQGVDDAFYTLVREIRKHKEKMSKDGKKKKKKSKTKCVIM
The experiment is described as follows: PPI-HTRF assay, wildtype K-Ras / SOS1 interaction. The note with it: HTRF, K-Ras wt; read-out: PPI-HTRF-5 nM (K-Ras wt IC50). It is filed as biochemical. The method in brief: as §1

A further experiment deals with SW620 cells. The experiment is described as follows: Ras cellular assay, cell proliferation SW620. In kind it is cell-based. The settings on record: Homo sapiens, SW-620. The text has this: For example, this assay can be also used to assess selective growth inhibition of a mutant Ras protein relative to a wildtype, or relative to a different mutant Ras protein.
The target in the next experiment is T3, K-Ras G12D (Homo sapiens, UniProt P01116, G12D).
T3 construct: made in house; host or cells: E. coli, e.g. BL21 (DE3)
T3 sequence (P01116 1-188 isoform P01116-2 G12D): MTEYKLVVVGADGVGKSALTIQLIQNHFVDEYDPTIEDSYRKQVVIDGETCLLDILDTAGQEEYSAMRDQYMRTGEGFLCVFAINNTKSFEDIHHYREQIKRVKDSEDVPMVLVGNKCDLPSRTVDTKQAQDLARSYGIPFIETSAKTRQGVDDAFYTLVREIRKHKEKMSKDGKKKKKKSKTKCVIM
The experiment is described as follows: PPI-HTRF assay, K-Ras G12D / SOS1 interaction. In kind it is biochemical. The note with it: HTRF, K-Ras G12D; read-out: PPI-HTRF-5 nM (K-Ras G12D IC50). The gist of the method:
as §1

Another experiment deals with T4, K-Ras G12V (Homo sapiens, UniProt P01116, G12V).
T4 construct: made in house; host or cells: E. coli, e.g. BL21 (DE3)
T4 sequence (P01116 1-188 isoform P01116-2 G12V): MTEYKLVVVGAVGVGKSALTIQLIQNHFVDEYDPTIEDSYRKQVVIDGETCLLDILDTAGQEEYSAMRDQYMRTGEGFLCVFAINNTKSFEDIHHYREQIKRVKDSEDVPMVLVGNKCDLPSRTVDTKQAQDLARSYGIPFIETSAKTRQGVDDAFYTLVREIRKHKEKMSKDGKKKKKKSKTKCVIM
The experiment is described as follows: PPI-HTRF assay, K-Ras G12V / SOS1 interaction. It is filed as biochemical. The settings on record: HTRF, K-Ras G12V; read-out: PPI-HTRF-5 nM (K-Ras G12V IC50). The method in brief: as §1

The test system of another experiment is GP2D cells. Put plainly: Ras cellular assay, cell proliferation GP2D. It is filed as cell-based. The gist of the method: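 Growth inhibition read by CellTiter-Glo luminescence roughly 5 days after compound addition, which followed overnight plating of G12D-mutant GP2D cells (e.g., 800 per well). Compounds were tested as a serial dilution (e.g., 9 points, 3-fold), with IC50 fitted by four-parameter model.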

pIC50: −log10 of the molar value.

T1 sequence (P01116 1-188 isoform P01116-2 G12S): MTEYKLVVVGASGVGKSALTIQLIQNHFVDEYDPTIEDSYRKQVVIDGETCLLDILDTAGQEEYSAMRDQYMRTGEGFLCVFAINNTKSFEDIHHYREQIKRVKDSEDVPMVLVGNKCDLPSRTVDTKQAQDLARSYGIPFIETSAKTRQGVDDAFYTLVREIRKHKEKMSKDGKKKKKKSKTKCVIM

For orientation: pIC50 means the IC50 on a negative log10 scale, so that one unit is a factor of ten. On to `N#Cc1c(N)sc2c(F)ccc(-c3c(Cl)c4c5c(nc(OC[C@@]67CCCN6C[C@H](F)C7)nc5c3F)N3CC[C@H]3CCO4)c12` [compound 207, 2-amino-4-((12aS)-9-chloro-7-fluoro-5-(((2R,7aS)-2-fluorotetrahydro-1H-pyrrolizin-7a(5H)-yl)methoxy)-1,11,12,12a-tetrahydro-2H-azeto[11,2′:5,6][1,5]oxazocino[4,3,2-de]quinazolin-8-yl)-7-fluorobenzo[b]thiophene-3-carbonitrile], for which the pIC50 on K-Ras G12S, with A549 cells, on wildtype K-Ras, in the experiment with SW620 cells, at K-Ras G12D and at K-Ras G12V was greater than 5.30 in each case. Also, the pIC50 in the experiment with GP2D cells is greater than 5.30.
Take `CN1c2nc(OC[C@@]34CCCN3C[C@H](F)C4)nc3c(F)c(-c4ccc(F)c5sc(N)c(C#N)c45)c(Cl)c(c23)OC2CNCC21` (stereo partly drawn) [compound 214, 2-amino-4-(6-chloro-4-fluoro-2-(((2R,7aS)-2-fluorotetrahydro-1H-pyrrolizin-7a(5H)-yl)methoxy)-11-methyl-7a,8,9,10,10a,11-hexahydropyrrolo[3′,4′:2,3][1,4]oxazepino [5,6,7-de]quinazolin-5-yl)-7-fluorobenzo[b]thiophene-3-carbonitrile]: the pIC50 was greater than 5.30 on K-Ras G12S; less than 5.30 with A549 cells; greater than 5.30 at wildtype K-Ras; less than 5.30 in the experiment with SW620 cells; greater than 5.30 on K-Ras G12D; greater than 5.30 at K-Ras G12V. Further, the pIC50 with GP2D cells was less than 5.30.
With `N#Cc1c(N)sc2c(F)ccc(-c3c(Cl)c4c5c(nc(OCC67CCCN6C[C@H](F)C7)nc5c3F)N3CC(CO)CCC3CO4)c12` (stereo partly drawn) [compound 215, 2-amino-4-(6-chloro-4-fluoro-2-(((2R)-2-fluorotetrahydro-1H-pyrrolizin-7a(5H)-yl)methoxy)-11-(hydroxymethyl)-8,8a,9,10,11,12-hexahydropyrido[2′,1′:3,4][1,4]oxazepino [5,6,7-de]quinazolin-5-yl)-7-fluorobenzo[b]thiophene-3-carbonitrile], the pIC50 on K-Ras G12S, in the experiment on A549 cells, on wildtype K-Ras, in the experiment with SW620 cells, on K-Ras G12D and on K-Ras G12V was greater than 5.30 throughout. In the experiment with GP2D cells, the pIC50 was greater than 5.30.
